Counter-ions that a name gives are not always drawn. ± gives the standard deviation of the averaged measurements.
Tests used:
[1] = test system: Homo sapiens (human subject panel, olfactory perception); experiment: perceived odor pleasantness rating (rating 0-100); higher = more pleasant
Method: (§1)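 Human olfactory psychophysics. 55 healthy subjects (after excluding 6 low performers) sniffed 1 mL of each odorant diluted in paraffin oil (vials, two dilutions per molecule, 20 molecules presented twice). Each subject rated intensity, pleasantness and familiarity on a 0-100 slider, starting at 50 and required to move. Ratings were given only when the subject reported detecting a smell; per-subject ratings are averaged over subjects.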

[2] = test system: Homo sapiens (human subject panel, olfactory perception); experiment: perceived odor intensity rating (rating 0-100); higher = stronger perceived smell
Method: as §1

[3] = test system: Homo sapiens (human subject panel, olfactory perception); experiment: perceived odor familiarity rating (rating 0-100); higher = more familiar
Method: as §1

[4] = odor dilution in paraffin oil: 1/1,000
[5] = odor dilution in paraffin oil: 1/100,000
[6] = odor dilution in paraffin oil: 1/10,000,000
[7] = odor dilution in paraffin oil: 1/10

Structure (SMILES)	perceived odor pleasantness rating [1, 4]	perceived odor pleasantness rating [1, 5]	perceived odor intensity rating [2, 4]	perceived odor intensity rating [2, 5]	perceived odor familiarity rating [3, 4]	perceived odor familiarity rating [3, 5]	perceived odor pleasantness rating [1, 6]	perceived odor intensity rating [2, 6]	perceived odor familiarity rating [3, 6]	perceived odor pleasantness rating [1, 7]	perceived odor intensity rating [2, 7]	perceived odor familiarity rating [3, 7]
C=CCOC(=O)c1ccccc1N [Allyl anthranilate]	52 ± 27	50.7 ± 25	55.1 ± 31	16.4 ± 19	45.9 ± 29	33.4 ± 26	–	–	–	–	–	–
C=CCOC(=O)CCC [Allyl butyrate]	23.7 ± 24	33.2 ± 24	78.6 ± 20	54.3 ± 31	45.2 ± 31	49.2 ± 28	–	–	–	–	–	–
C=CCOC(=O)/C=C/c1ccccc1 [Allyl cinnamate]	52.4 ± 28	52.4 ± 24	57 ± 32	46.8 ± 30	40.5 ± 28	44 ± 27	–	–	–	–	–	–
C=CCOC(=O)CCC1CCCCC1 [Allyl cyclohexanepropionate]	60.9 ± 23	54.7 ± 24	57.9 ± 25	30.6 ± 30	58.7 ± 29	32.5 ± 27	–	–	–	–	–	–
C=CCOC(=O)CCCCCC [Allyl heptanoate]	73.7 ± 20	55.4 ± 23	53.9 ± 31	22.2 ± 26	57.9 ± 31	37.8 ± 29	–	–	–	–	–	–
C=CCOC(=O)Cc1ccccc1 [Allyl phenylacetate]	–	33 ± 27	–	33.8 ± 29	–	44 ± 25	49.8 ± 28	25.7 ± 25	29.4 ± 16	–	–	–
C=CCOC(=O)/C(C)=C/C [Allyl tiglate]	41.1 ± 28	44.3 ± 23	71.9 ± 24	48 ± 29	49.6 ± 31	46.1 ± 32	–	–	–	–	–	–
CC1(C)CCC[C@]2(C)[C@H]3CCO[C@]3(C)CC[C@@H]12 [Ambrox]	62.8 ± 23	–	50.1 ± 30	–	60.9 ± 28	–	–	–	–	55.7 ± 27	73.6 ± 23	61 ± 27
CCCCCOC(=O)CCC [Amyl butyrate]	55.8 ± 28	47.7 ± 30	59.2 ± 26	20.8 ± 25	51.7 ± 32	32.9 ± 32	–	–	–	–	–	–
CCCCCOC(=O)CCCCC [Amyl hexanoate]	53.8 ± 27	–	28.8 ± 29	–	38.1 ± 30	–	–	–	–	44.6 ± 28	67.3 ± 25	39.1 ± 30
C[C@@]12C=CC[C@H]1[C@@H]1CCC3=CC(=O)CC[C@]3(C)[C@H]1CC2 [Androstadienone]	29.2 ± 24	38.6 ± 27	63.1 ± 32	38.2 ± 35	45.8 ± 34	31.6 ± 30	–	–	–	–	–	–
COc1ccc(COC(C)=O)cc1 [Anisyl acetate]	69.8 ± 21	48.7 ± 25	59.4 ± 26	31.7 ± 26	52.8 ± 29	39.3 ± 30	–	–	–	–	–	–
N[C@@H](CC(=O)O)C(=O)O [Aspartic Acid]	35 ± 23	–	29.7 ± 30	–	40 ± 30	–	–	–	–	32.1 ± 28	63.6 ± 27	46.6 ± 32
COC(OC)c1ccccc1 [Benzaldehyde dimethyl acetal]	35 ± 24	49.9 ± 24	68.6 ± 24	29.2 ± 25	41.5 ± 31	38.7 ± 29	–	–	–	–	–	–
CC1COC(c2ccccc2)O1 (centres undefined) [Benzaldehyde propylene glycol acetal]	45.5 ± 23	47.2 ± 22	50.5 ± 29	28.8 ± 32	36.3 ± 27	34.2 ± 22	–	–	–	–	–	–
c1ccccc1 [Benzene]	51.7 ± 20	39.4 ± 22	11.2 ± 14	19.8 ± 26	26.1 ± 24	27.4 ± 25	–	–	–	–	–	–
Sc1ccccc1 [Benzenethiol]	–	24.6 ± 23	–	63.4 ± 34	–	45.1 ± 30	41.9 ± 24	13 ± 22	31.3 ± 28	–	–	–

Structure (SMILES)	perceived odor pleasantness rating [1, 4]	perceived odor pleasantness rating [1, 5]	perceived odor intensity rating [2, 4]	perceived odor intensity rating [2, 5]	perceived odor familiarity rating [3, 4]	perceived odor familiarity rating [3, 5]	perceived odor pleasantness rating [1, 6]	perceived odor intensity rating [2, 6]	perceived odor familiarity rating [3, 6]	perceived odor pleasantness rating [1, 7]	perceived odor intensity rating [2, 7]	perceived odor familiarity rating [3, 7]
O=C(O)c1ccccc1 [Benzoic acid]	34.9 ± 22	55.5 ± 25	30.3 ± 27	20.2 ± 24	34.4 ± 25	38.7 ± 30	–	–	–	–	–	–
O=C(OCc1ccccc1)c1ccccc1 [Benzyl benzoate]	48.6 ± 21	–	19.8 ± 24	–	42.4 ± 31	–	–	–	–	46.9 ± 24	53.3 ± 30	38.5 ± 26
c1ccc(CSSCc2ccccc2)cc1 [Benzyl disulfide]	26.8 ± 22	–	63.6 ± 27	–	49.1 ± 32	–	–	–	–	24.2 ± 25	81.2 ± 20	48.2 ± 34
c1ccc(COCc2ccccc2)cc1 [Benzyl ether]	49.2 ± 23	–	25.2 ± 26	–	31 ± 26	–	–	–	–	67.8 ± 27	75.7 ± 24	63.8 ± 32
S=C=NCc1ccccc1 [Benzyl isothiocyanate]	15.1 ± 19	29 ± 23	80.9 ± 20	55 ± 30	40.9 ± 32	43.4 ± 26	–	–	–	–	–	–
O=C(Cc1ccccc1)OCc1ccccc1 [Benzyl phenylacetate]	31 ± 26	47 ± 20	54.4 ± 30	37.4 ± 35	49.8 ± 32	37.3 ± 31	–	–	–	–	–	–
CCC(=O)OCc1ccccc1 [Benzyl propionate]	67.2 ± 23	44 ± 28	53 ± 30	30 ± 32	50.7 ± 32	34.5 ± 24	–	–	–	–	–	–
O=C(OCc1ccccc1)c1ccccc1O [Benzyl salicylate]	53.6 ± 24	–	28.4 ± 28	–	38 ± 28	–	–	–	–	57.6 ± 23	48.6 ± 30	40.7 ± 29
c1ccc(-c2ccccc2)cc1 [Biphenyl]	51.4 ± 21	–	31.7 ± 26	–	36.2 ± 28	–	–	–	–	31.3 ± 24	77.6 ± 20	42.5 ± 33
CSCSC [Bis(methylthio)methane]	–	25.1 ± 25	–	78.7 ± 22	–	50.3 ± 34	45.4 ± 25	33.8 ± 26	38.9 ± 31	–	–	–
CC(=O)OC1CC2CCC1(C)C2(C)C (centres undefined) [Bornyl acetate]	45.2 ± 22	45.7 ± 24	36.1 ± 30	29.9 ± 28	44.2 ± 29	28.9 ± 26	–	–	–	–	–	–
C=CCCCCCCCCC(=O)OCCCC [Butyl 10-undecenoate]	42.2 ± 19	–	31.9 ± 33	–	44.4 ± 32	–	–	–	–	35.1 ± 27	58.1 ± 30	50 ± 30
CCCCOC(=O)[C@H](C)O [Butyl (S)-(-)-lactate]	50.2 ± 28	48.8 ± 23	55.5 ± 29	33.6 ± 34	50.4 ± 32	39.5 ± 25	–	–	–	–	–	–
CCCCOC(=O)CC [Butyl Propionate]	54.6 ± 26	46.5 ± 25	62 ± 25	18 ± 25	50.6 ± 30	31.9 ± 33	–	–	–	–	–	–
CCCCOC=O [Butyl formate]	45.4 ± 28	44.1 ± 28	51.8 ± 32	8.38 ± 15	49.7 ± 29	29.1 ± 29	–	–	–	–	–	–
CCCCOC(=O)Cc1ccccc1 [Butyl phenylacetate]	47.2 ± 28	45.9 ± 22	53.1 ± 31	24.8 ± 25	51.6 ± 30	41.3 ± 32	–	–	–	–	–	–
CCCCN [Butylamine]	–	50.8 ± 27	–	16.3 ± 22	–	36 ± 29	44.4 ± 25	21.8 ± 24	32.7 ± 27	–	–	–

Source: the supplement of paper PMC4977894
